Source: ChEMBL document CHEMBL2073985, “Increase in doxorubicin cytotoxicity by carvedilol inhibition of P-glycoprotein activity” (Biochem Pharmacol, 1999)

Molecular target: ATP-dependent translocase ABCB1 (Homo sapiens, UniProt P08183)
Test: TP_TRANSPORTER: increase in Calcein intracellular accumulation (Calcein: 50 mg/L, Carvedilol: 10 uM) in Hs578T-Dox cells
Format: functional, cell-based

ATP-dependent translocase ABCB1, sequence (P08183 whole entry): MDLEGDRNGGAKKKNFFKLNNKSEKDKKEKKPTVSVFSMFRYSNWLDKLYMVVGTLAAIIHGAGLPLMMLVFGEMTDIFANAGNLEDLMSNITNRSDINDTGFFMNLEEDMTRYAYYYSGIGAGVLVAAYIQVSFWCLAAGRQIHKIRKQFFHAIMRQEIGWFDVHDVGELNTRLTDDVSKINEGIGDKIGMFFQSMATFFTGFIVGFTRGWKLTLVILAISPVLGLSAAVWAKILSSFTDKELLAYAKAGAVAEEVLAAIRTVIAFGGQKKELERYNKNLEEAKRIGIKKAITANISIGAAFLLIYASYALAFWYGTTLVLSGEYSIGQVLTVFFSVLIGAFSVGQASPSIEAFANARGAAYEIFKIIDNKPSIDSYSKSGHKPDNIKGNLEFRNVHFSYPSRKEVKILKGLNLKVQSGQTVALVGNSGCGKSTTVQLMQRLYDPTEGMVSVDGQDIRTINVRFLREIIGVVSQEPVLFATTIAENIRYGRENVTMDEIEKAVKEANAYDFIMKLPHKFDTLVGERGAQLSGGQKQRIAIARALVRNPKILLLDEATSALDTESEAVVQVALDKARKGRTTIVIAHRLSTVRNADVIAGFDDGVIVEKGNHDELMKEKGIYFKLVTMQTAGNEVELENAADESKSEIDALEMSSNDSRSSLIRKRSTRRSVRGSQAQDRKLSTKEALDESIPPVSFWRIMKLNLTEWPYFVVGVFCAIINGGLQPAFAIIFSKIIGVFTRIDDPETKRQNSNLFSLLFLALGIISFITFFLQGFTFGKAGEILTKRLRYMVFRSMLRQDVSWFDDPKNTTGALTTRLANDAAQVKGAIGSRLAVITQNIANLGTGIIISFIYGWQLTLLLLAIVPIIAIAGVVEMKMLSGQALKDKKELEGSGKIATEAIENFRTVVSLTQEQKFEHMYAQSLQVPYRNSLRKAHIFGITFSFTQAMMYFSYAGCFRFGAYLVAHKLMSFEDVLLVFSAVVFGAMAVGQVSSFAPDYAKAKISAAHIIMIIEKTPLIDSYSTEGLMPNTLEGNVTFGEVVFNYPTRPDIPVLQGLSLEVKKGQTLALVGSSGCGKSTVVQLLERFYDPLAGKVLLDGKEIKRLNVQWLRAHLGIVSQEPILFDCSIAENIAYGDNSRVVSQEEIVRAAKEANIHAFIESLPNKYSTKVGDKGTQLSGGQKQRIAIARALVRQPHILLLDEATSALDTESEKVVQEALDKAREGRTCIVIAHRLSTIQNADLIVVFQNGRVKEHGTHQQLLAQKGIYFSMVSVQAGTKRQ

Activity: inhibitor [+]
SMILES: COc1ccccc1OCCNCC(O)COc1cccc2[nH]c3ccccc3c12 (stereo unspecified) [CARVEDILOL]
